Where two headings read alike, the source gives them in different places.
Biological target: Human complement C1s enzyme (Homo sapiens (Human), UniProt P09871)
Assay: Human C1s enzyme assay
Assay type: biochemical
Conditions: read-out: IC50 (Stars)
In short: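 IC50 derived by nonlinear regression of rate versus concentration, with rate taken from A405 kinetics (30 s intervals, 30 min) after adding 100 μM each Z-L-Lys-SBzl and DTNB. C1s from human serum, 1.16 nM, exposed to compound for 5 min at RT beforehand; buffer 50 mM Tris, 1 M NaCl, pH 7.5.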

[1] = Human complement C1s enzyme 1.16 nM, substrate Z-L-Lys-SBzl 100 μM, assay of Example 3
[2] = Human C1s enzyme assay of Example 3
[3] = Human complement C1s enzyme 1.16 nM, substrate Z-L-Lys-SBzl, assay of Example 3

Human complement C1s enzyme, sequence (P09871 438-688 limits assumed): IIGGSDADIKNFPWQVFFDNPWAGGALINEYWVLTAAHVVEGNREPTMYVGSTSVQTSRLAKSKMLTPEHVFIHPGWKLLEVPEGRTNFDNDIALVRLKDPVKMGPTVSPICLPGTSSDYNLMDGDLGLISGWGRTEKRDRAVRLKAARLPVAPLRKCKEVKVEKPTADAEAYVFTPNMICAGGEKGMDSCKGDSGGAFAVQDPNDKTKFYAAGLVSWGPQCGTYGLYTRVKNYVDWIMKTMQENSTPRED
Human complement C1s enzyme, sequence (P09871 16-437 partner limits assumed): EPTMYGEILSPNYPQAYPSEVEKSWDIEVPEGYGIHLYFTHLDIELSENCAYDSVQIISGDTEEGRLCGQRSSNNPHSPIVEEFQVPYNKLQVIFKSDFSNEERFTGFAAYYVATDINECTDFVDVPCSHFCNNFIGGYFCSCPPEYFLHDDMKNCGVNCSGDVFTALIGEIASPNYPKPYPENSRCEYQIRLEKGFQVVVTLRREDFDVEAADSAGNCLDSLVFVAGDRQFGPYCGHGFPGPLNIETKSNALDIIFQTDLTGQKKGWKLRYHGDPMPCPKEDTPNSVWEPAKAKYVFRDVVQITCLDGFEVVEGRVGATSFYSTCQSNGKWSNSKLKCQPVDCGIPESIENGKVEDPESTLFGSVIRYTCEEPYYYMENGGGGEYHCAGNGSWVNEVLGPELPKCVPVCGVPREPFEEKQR

Row | IC50 [1] [nM] | IC50 [2] [nM] | SMILES | other results
1 | < 100 | – | N=C(N)c1csc([C@@H](CO)NC(=O)[C@@H]2CC3(CN2C(=O)CNC(=O)c2ccc4c(c2)-c2ccccc2C4(F)F)OCCO3)c1 [Compound 376, (S)—N—((R)-1-(4-carbamimidoylthiophen-2-yl)-2-hydroxyethyl)-7-((9,9-difluoro-9H-fluorene-3-carbonyl)glycyl)-1,4-dioxa-7-azaspiro [4.4]nonane-8-carboxamide] | –
2 | < 100 | – | C[C@@H](NC(=O)[C@@H]1C[C@@H](OC(F)F)CN1C(=O)CNC(=O)c1ccc2c(c1)sc1ccccc12)c1cc(C(=N)N)cs1 [Compound 352, (2S,4R)—N—((R)-1-(4-carbamimidoylthiophen-2-yl)ethyl)-1-((dibenzo[b,d]thiophene-3-carbonyl)glycyl)-4-(difluoromethoxy)pyrrolidine-2-carboxamide] | –
3 | < 100 | – | C[C@@H](NC(=O)[C@@H]1C[C@](F)(CF)CN1C(=O)CNC(=O)c1ccc2c(c1)C(C)(C)c1ccccc1-2)c1cc(C(=N)N)cs1 [Compound 368, (2S,4R)—N—((R)-1-(4-carbamimidoylthiophen-2-yl)ethyl)-1-((9,9-dimethyl-9H-fluorene-2-carbonyl)glycyl)-4-fluoro-4-(fluoromethyl)pyrrolidine-2-carboxamide] | –
4 | < 100 | – | C[C@@H](NC(=O)[C@@H]1C[C@@H](OC(F)F)CN1C(=O)CNC(=O)c1ccc2c(c1)-c1ccccc1S2(=O)=O)c1cc(C(=N)N)cs1 [Compound 337, (2S,4R)—N—((R)-1-(4-carbamimidoylthiophen-2-yl)ethyl)-4-(difluoromethoxy)-1-((5,5-dioxidodibenzo[b,d]thiophene-2-carbonyl)glycyl) pyrrolidine-2-carboxamide] | –

More lines, now with the values behind:

Row | SMILES | IC50 [1] [nM] | IC50 [2] [nM] | other results
5 | C[C@@H](NC(=O)[C@@H]1C[C@@H](OC(F)F)CN1C(=O)CNC(=O)c1ccc2oc3ccccc3c2c1)c1cc(C(=N)N)cs1 [Compound 205, (2S,4R)—N—((R)-1-(4-carbamimidoylthiophen-2-yl)ethyl)-1-((dibenzo[b,d]furan-2-carbonyl)glycyl)-4-(difluoromethoxy)pyrrolidine-2-carboxamide] | < 100 | – | –
6 | N=C(N)c1csc(CNC(=O)[C@@H]2CC3(CN2C(=O)CNC(=O)c2ccc4c(c2)-c2ccccc2C4=O)OCCO3)c1 [Compound 88, (S)—N-((4-carbamimidoylthiophen-2-yl)methyl)-7-((9-oxo-9H-fluorene-3-carbonyl)glycyl)-1,4-dioxa-7-azaspiro[4.4]nonane-8-carboxamide] | – | < 100 | –
7 | Cc1ccc(Oc2ccc(C(=O)NCC(=O)N3C[C@H](OC(F)F)C[C@H]3C(=O)N[C@H](C)c3cc(C(=N)N)cs3)cc2)cc1 [Compound 6, (2S,4R)—N—((R)-1-(4-carbamimidoylthiophen-2-yl)ethyl)-4-(difluoromethoxy)-1-((4-(p-tolyloxy)benzoyl)glycyl)pyrrolidine-2-carboxamide] | – | < 100 | –
8 | C[C@@]12C[C@@H]1N(C(=O)CNC(=O)c1ccc3c(c1)-c1ccccc1C3(F)F)[C@H](C(=O)Nc1cc(C(=N)N)cs1)C2 [Compound 259, (1S,3S,5S)—N-(4-carbamimidoylthiophen-2-yl)-2-((9,9-difluoro-9H-fluorene-3-carbonyl)glycyl)-5-methyl-2-azabicyclo[3.1.0]hexane-3-carboxamide] | > 1000 | – | –
9 | N=C(N)c1csc(CNC(=O)[C@@H]2CC3(CN2C(=O)CNC(=O)c2cccc(-c4ccccc4)n2)OCCO3)c1 [Compound 146, (S)—N-((4-carbamimidoylthiophen-2-yl)methyl)-7-((6-phenylpicolinoyl)glycyl)-1,4-dioxa-7-azaspiro[4.4]nonane-8-carboxamide] | – | < 100 | –
10 | N=C(N)c1csc([C@H](NC(=O)[C@@H]2CC3(CN2C(=O)CNC(=O)c2ccc4c(c2)-c2ccccc2C4(F)F)OCCO3)C(F)(F)F)c1 (single isomer, unassigned) [Compound 246, (S)—N—((R*)-1-(4-carbamimidoylthiophen-2-yl)-2,2,2-trifluoroethyl)-7-((9,9-difluoro-9H-fluorene-3-carbonyl)glycyl)-1,4-dioxa-7-azaspiro[4.4]nonane-8-carboxamide] | < 100 | – | –
11 | C[C@@H](NC(=O)[C@@H]1CC2(CN1C(=O)CNC(=O)c1ccc3c(c1)-c1ccccc1C3(F)F)OCCO2)c1cc(-c2nnc[nH]2)cs1 [Compound 130, (S)—N—((R)-1-(4-(4H-1,2,4-triazol-3-yl)thiophen-2-yl)ethyl)-7-((9,9-difluoro-9H-fluorene-3-carbonyl)glycyl)-1,4-dioxa-7-azaspiro[4.4]nonane-8-carboxamide] | – | 100 to 1000 | –
12 | C[C@H](O)[C@H](O)[C@@H](O)[C@@H](O)CNCC(=O)NCCOC[C@@]12C[C@@H]1N(C(=O)CNC(=O)c1ccc3c(c1)-c1ccccc1C3(F)F)[C@H](C(=O)N[C@H](C)c1cc(C(=N)N)cs1)C2 [Compound 89, (1S,3S,5R)—N—((R)-1-(4-carbamimidoylthiophen-2-yl)ethyl)-2-((9,9-difluoro-9H-fluorene-3-carbonyl)glycyl)-5-((2-(2-(((2S,3S,4S,5S)-2,3,4,5-tetrahydroxyhexyl)amino)acetamido)ethoxy)methyl)-2-azabicyclo[3.1.0]hexane-3-carboxamide] | – | < 100 | –
13 | COC[C@@]1(F)C[C@@H](C(=O)N[C@H](CO)c2cc(C(=N)N)cs2)N(C(=O)CNC(=O)c2ccc3c(c2)-c2ccccc2C3(C)C)C1 [Compound 409, (2S,4R)—N—((R)-1-(4-carbamimidoylthiophen-2-yl)-2-hydroxyethyl)-1-((9,9-dimethyl-9H-fluorene-3-carbonyl)glycyl)-4-fluoro-4-(methoxymethyl)pyrrolidine-2-carboxamide] | – | – | IC50 [3]: < 100 nM
14 | Cc1ccc(Oc2ccc(C(=O)NCC(=O)N3[C@H]4C[C@@]4(C)C[C@H]3C(=O)N[C@H](C)c3ccc(C(=N)N)s3)cc2)cc1 [Compound 26, (1S,3S,5S)—N—((R)-1-(5-carbamimidoylthiophen-2-yl)ethyl)-5-methyl-2-((4-(p-tolyloxy)benzoyl)glycyl)-2-azabicyclo[3.1.0]hexane-3-carboxamide] | – | < 100 | –
15 | C[C@@H](NC(=O)[C@@H]1C[C@](F)(CF)CN1C(=O)CNC(=O)c1ccc2c(c1)Oc1ccccc1S2)c1cc(C(=N)N)cs1 [Compound 327, (2S,4R)—N—((R)-1-(4-carbamimidoylthiophen-2-yl)ethyl)-4-fluoro-4-(fluoromethyl)-1-((phenoxathiine-3-carbonyl)glycyl)pyrrolidine-2-carboxamide] | < 100 | – | –
16 | Cc1ccc(-c2ccc(C(=O)NCC(=O)N3CC4(C[C@H]3C(=O)NCc3cc(C(=N)N)cs3)OCCO4)cc2)cc1 [Compound 108, (S)—N-((4-carbamimidoylthiophen-2-yl)methyl)-7-((4′-methyl-[1,1′-biphenyl]-4-carbonyl)glycyl)-1,4-dioxa-7-azaspiro[4.4]nonane-8-carboxamide] | – | < 100 | –
17 | COC[C@@]1(F)C[C@@H](C(=O)N[C@H](CO)c2cc(C(=N)N)cs2)N(C(=O)CNC(=O)c2ccc3c(c2)-c2ccccc2C3(F)F)C1 [Compound 408, (2S,4R)—N—((R)-1-(4-carbamimidoylthiophen-2-yl)-2-hydroxyethyl)-1-((9,9-difluoro-9H-fluorene-3-carbonyl)glycyl)-4-fluoro-4-(methoxymethyl)pyrrolidine-2-carboxamide] | – | – | IC50 [3]: < 100 nM
18 | C[C@@H](NC(=O)[C@@H]1CC2(CN1C(=O)CNC(=O)c1ccc(-c3ccc(F)cn3)cc1)OCCO2)c1cc(C(=N)N)cs1 [Compound 164, (S)—N—((R)-1-(4-carbamimidoylthiophen-2-yl)ethyl)-7-((4-(5-fluoropyridin-2-yl)benzoyl)glycyl)-1,4-dioxa-7-azaspiro[4.4]nonane-8-carboxamide] | – | < 100 | –
19 | COC[C@@]1(F)C[C@@H](C(=O)N[C@H](C)c2cc(C(=N)N)cs2)N(C(=O)CNC(=O)c2ccc3c(c2)-c2ccccc2C3C)C1 (stereo partly drawn) [Compound 418, (2S,4R)—N—((R)-1-(4-carbamimidoylthiophen-2-yl)ethyl)-4-fluoro-4-(methoxymethyl)-1-((9-methyl-9H-fluorene-3-carbonyl)glycyl)pyrrolidine-2-carboxamide] | – | – | IC50 [3]: < 100 nM
20 | CCCCCCOC(=O)/N=C(/N)c1csc([C@@H](C)NC(=O)[C@@H]2C[C@](F)(CF)CN2C(=O)CNC(=O)c2ccc(Oc3ccc(F)cc3)cc2)c1 [Compound 234, hexyl ((E)-amino(5-((R)-1-((2S,4R)-4-fluoro-4-(fluoromethyl)-1-((4-(4-fluorophenoxy)benzoyl)glycyl)pyrrolidine-2-carboxamido)ethyl)thiophen-3-yl)methylene)carbamate] | < 100 | – | –
21 | C[C@@H](NC(=O)[C@@H]1C[C@](F)(CF)CN1C(=O)CNC(=O)c1cccc(-c2ccc(F)cc2)c1)c1cc(C(=N)N)cs1 [Compound 329, (2S,4R)—N—((R)-1-(4-carbamimidoylthiophen-2-yl)ethyl)-4-fluoro-1-((4′-fluoro-[1,1′-biphenyl]-3-carbonyl)glycyl)-4-(fluoromethyl)pyrrolidine-2-carboxamide] | < 100 | – | –
22 | COC[C@@H]1C[C@@H](C(=O)N[C@H](C)c2cc(C(=N)N)cs2)N(C(=O)CNC(=O)c2ccc3oc4ccccc4c3c2)C1 (relative stereo) [Compound 295, (2S,4R*)—N—((R)-1-(4-carbamimidoylthiophen-2-yl)ethyl)-1-((dibenzo[b,d]furan-2-carbonyl)glycyl)-4-(methoxymethyl)pyrrolidine-2-carboxamide] | < 100 | – | –
23 | C[C@@H](NC(=O)[C@@H]1C[C@](F)(CF)CN1C(=O)CNC(=O)c1ccc2oc3ccccc3c2c1)c1cc(C(=N)N)cs1 [Compound 223, (2S,4R)—N—((R)-1-(4-carbamimidoylthiophen-2-yl)ethyl)-1-((dibenzo[b,d]furan-2-carbonyl)glycyl)-4-fluoro-4-(fluoromethyl)pyrrolidine-2-carboxamide] | < 100 | – | –
